AC40 data for 63 compounds are collected here from PubChem BioAssay AID652053 (Broad Institute, 2013).

The assay concerns Huh7 psiCHECK-miR122 Renilla luciferase reporter, 48 h. The assay is described as follows: miR-122 inhibitors in Huh7 reporter cells, dose response, cell-based, Huh7 psiCHECK-miR122, Renilla luciferase, cherry-pick (AID 652053).
For the compound `C[C@@H]1CN([C@H](C)CO)C(=O)c2cccc(N(C)C)c2O[C@H]1CN(C)C(=O)Nc1ccccc1`, the AC40 was 1.33 µM.

With `COC(=O)c1c(C)oc(C)c1S(=O)(=O)NCC1CC1`, the AC40 is 3.29 µM.

With `COc1cccc(N2CCN(C(=O)c3oc4ccccc4c3NC(=O)Cc3ccc(OC)c(OC)c3)CC2)c1`, the AC40 was 1.62 µM.

As to `COc1ccc(NC(=O)C(OC(=O)Cn2cnc3c2c(=O)n(C)c(=O)n3C)c2ccccc2)cc1Cl` (stereo not drawn), the AC40 is 7.87 µM.

`O=S(=O)(Nc1ccc(N2CCOCC2)cc1)c1cc(Cl)ccc1Cl`: the AC40 was 26.6 µM.

In the case of `CCc1ccc(-c2cc(C)no2)cc1S(=O)(=O)NC(C)Cc1ccco1` (stereo not drawn), the AC40 is below 0.26 µM.

As for `CC(=O)N1CCSc2ccc(S(=O)(=O)NCCc3ccc(Cl)cc3)cc21`, the AC40 is 4.57 µM.

In the case of `COc1ccc(OC)c(S(=O)(=O)Nc2ccc3oc4c(c3c2)C(=O)CCC4)c1`, the AC40 is 17.7 µM.

For `O=S(=O)(NC(=NCc1ccccc1)c1ccc(F)cc1)c1ccc(Cl)cc1`, the AC40 is 13.7 µM.

As for `Cc1cc(C)c(C)c(S(=O)(=O)NC2CCN(Cc3ccccc3)CC2)c1C`, the AC40 is 9.53 µM.

`Cc1cccc(NS(=O)(=O)c2cc3c4c(c2)C(C)C(=O)N4CCC3)c1` (stereo not drawn): the AC40 is 1.93 µM.

With `COc1ccc(S(=O)(=O)NCc2ccccc2)cc1Br`, the AC40 was 5.07 µM.

For the compound `C[C@@H]1CN([C@@H](C)CO)C(=O)c2cccc(NC(=O)Nc3ccc(F)cc3)c2O[C@H]1CN(C)Cc1ccc(C(F)(F)F)cc1`, the AC40 is 3.97 µM.

As for `C[C@@H]1CN([C@@H](C)CO)C(=O)Cc2cc(NC(=O)Nc3ccc(C(F)(F)F)cc3)ccc2O[C@@H]1CN(C)C(=O)Nc1cccc2ccccc12`, the AC40 was 4.39 µM.

As to `COc1ccc(NS(=O)(=O)c2cc(-c3cnc(C4CC4)o3)ccc2C)cc1`, the AC40 is 5.35 µM.

Take `CC(=O)Nc1ccc(S(=O)(=O)Nc2cccc(-c3nc4ccccc4o3)c2)cc1`: the AC40 was 6.93 µM.

For `Cc1ccc(C(=O)NCc2ccncc2)cc1S(=O)(=O)Nc1cccc(C)c1C`, the AC40 is 1.93 µM.

As to `Cc1ccc(NS(=O)(=O)c2cccc(C(=O)N(C)Cc3cccs3)c2)cc1`, the AC40 was 3.04 µM.

Take `COc1ccccc1NS(=O)(=O)c1cc(NC(=O)Nc2ccc(Cl)cc2Cl)ccc1N1CCCCC1`: the AC40 is 1.49 µM.

In the case of `COc1cc2oc3ccccc3c2cc1N(CC(=O)N(C)C)S(=O)(=O)c1ccccc1`, the AC40 was 4.54 µM.

Turning to `COc1ccccc1CNC(=O)C[C@H]1CC[C@H]2[C@@H](COc3ccc(NS(=O)(=O)c4ccc(C)cc4)cc3C(=O)N2C)O1`, the AC40 was 21.5 µM.

Turning to `COc1ccccc1CNC(=O)C[C@H]1CC[C@H]2[C@H](COc3ccc(NS(=O)(=O)c4ccc(C)cc4)cc3C(=O)N2C)O1`, the AC40 was 22.4 µM.

`Cc1cc(NS(=O)(=O)c2ccccc2)cc(Cl)c1O`: the AC40 is 21.1 µM.

Turning to `CC(=O)Nc1ccc(S(=O)(=O)C(C#N)c2nc3ccccc3nc2NCCO)cc1` (stereo not drawn), the AC40 was 25.9 µM.

`CNC(=O)NC(=O)C(C)OC(=O)c1ccc(Cl)c(S(=O)(=O)Nc2ccc(F)cc2)c1` (stereo not drawn): the AC40 was 7.64 µM.

Take `CCc1c(C(=O)NC2CCCCC2)[nH]c(C)c1C(C)=O`: the AC40 is 4.84 µM.

With `Cc1ccc(NS(=O)(=O)c2cc3c(cc2C)NC(=O)CO3)cc1`, the AC40 was 5.89 µM.

For `Cc1cccc(NS(=O)(=O)c2csc(C(N)=O)c2)c1`, the AC40 was 3.34 µM.

As to `C[C@@H]1CN([C@H](C)CO)C(=O)c2cc(NC(=O)Nc3ccccc3)ccc2O[C@@H]1CN(C)S(=O)(=O)c1ccc(Cl)cc1`, the AC40 is 5.33 µM.

Consider `Cc1cc(-c2ccc(C(C)C)c(S(=O)(=O)NCc3ccco3)c2)on1`, for which the AC40 is 1.22 µM.

Take `O=C(Nc1ccc(N2CCOCC2)c(S(=O)(=O)Nc2cc(Cl)ccc2Cl)c1)c1cccnc1`: the AC40 is 0.681 µM.

`C[C@H](CO)N1C[C@H](C)[C@H](CN(C)Cc2ccc(C(=O)Nc3ccccc3N)cc2)Oc2ccc(NC(=O)NC3CCCCC3)cc2CC1=O`: the AC40 was 16.2 µM.

In the case of `CN(Cc1ccccc1)S(=O)(=O)c1ccc(NC(=S)NC(=O)C2CCCC2)cc1`, the AC40 is 9.75 µM.

Consider `Cc1nn(C)c(C)c1S(=O)(=O)NCc1cccs1`, for which the AC40 is 13.9 µM.

As to `Cc1ccc(-c2nn3c(C)nnc3c3ccccc23)cc1S(=O)(=O)NCCN1CCOCC1`, the AC40 is 3.24 µM.

As for `CCCNC(=O)NC[C@@H]1[C@@H](c2ccc(C3=CCCC3)cc2)[C@@H](CO)N1C(=O)CC`, the AC40 is 16.9 µM.

With `CCc1ccc(-c2cc(C)no2)cc1S(=O)(=O)NCc1ccco1`, the AC40 was 1.61 µM.

As to `CC(NC(=O)CNC(=S)N(Cc1cccs1)C1CCCC1)c1ccccc1` (stereo not drawn), the AC40 was 1.47 µM.

Consider `Cc1ccc(C(C)C)cc1S(=O)(=O)Nc1cccnc1`, for which the AC40 is 2.62 µM.

`C[C@H](CO)N1C[C@H](C)[C@@H](CN(C)CC2CCCCC2)Oc2c(NC(=O)c3ccncc3)cccc2C1=O`: the AC40 is 1.97 µM.

Turning to `C[C@H](CO)N1C[C@H](C)[C@@H](CN(C)Cc2ccc(C(F)(F)F)cc2)Oc2c(NC(=O)C3CC3)cccc2C1=O`, the AC40 is 0.387 µM.

Regarding `COc1ccc(Br)cc1CNC(=O)Nc1cccs1`, the AC40 was 15.5 µM.

For the compound `C[C@@H]1CN([C@H](C)CO)C(=O)c2cccc(NC(=O)Nc3ccccc3)c2O[C@@H]1CN(C)Cc1ccc(C(=O)Nc2ccccc2N)cc1`, the AC40 was 20.5 µM.

Consider `Cc1cc(C)c(S(=O)(=O)NCc2ccccn2)cc1C`, for which the AC40 was 9.76 µM.

As for `CCCCCCNS(=O)(=O)c1ccc(Cl)s1`, the AC40 was 13.9 µM.

In the case of `Cc1cc(C)cc(C(O)c2ncc(-c3ccccc3F)[nH]2)c1` (stereo not drawn), the AC40 is 2.5 µM.

For `CCOc1cc(C)c(C(C)C)cc1S(=O)(=O)n1ccc(C)n1`, the AC40 is 7.45 µM.

For `CC(=O)N1CCOc2ccc(S(=O)(=O)Nc3cccc(C)c3)cc21`, the AC40 was 1.64 µM.

As to `COc1ccc(NS(=O)(=O)c2ccc(OC)c(OC)c2)cc1OC`, the AC40 is 5.37 µM.

For `COc1ccccc1CN1[C@H](CO)[C@@H]2c3ccccc3N(C(=O)c3ccc(F)cc3)C[C@@H]21`, the AC40 was 30 µM.

For the compound `O=S(=O)(NCCc1ccc(F)cc1)c1cc(C(F)(F)F)ccc1Br`, the AC40 was below 0.26 µM.

As for `COc1ccccc1C(=O)Nc1ccc2c(c1)C(=O)N(C)[C@H]1CC[C@@H](CC(=O)NCc3ccc(Cl)c(Cl)c3)O[C@@H]1CO2`, the AC40 was 2.85 µM.

`O=S(=O)(NCCc1ccccc1)c1ccc(F)cc1Br`: the AC40 was 1.45 µM.

For the compound `COc1ccc(F)cc1S(=O)(=O)Nc1ccc2c(c1)OCO2`, the AC40 was 5.47 µM.

With `COc1ccc(S(=O)(=O)Nc2cc(Cl)ccc2OC)cc1`, the AC40 is 2.68 µM.

With `O=C(Nc1sc2c(c1C(=O)O)CCCCC2)c1ccco1`, the AC40 is 2.49 µM.

As to `CCN(CC)c1ccc(NC(=O)COc2ccccc2C#N)cc1S(=O)(=O)Nc1ccccc1OC`, the AC40 was 0.325 µM.

For `O=C(NCc1ccncc1)c1cccc(S(=O)(=O)Nc2ccc(F)cc2)c1`, the AC40 is 3.23 µM.

On to `CCOC(=O)c1ccc(S(=O)(=O)NC2CCCCCCC2)n1C`, for which the AC40 was 3.76 µM.

For `Cc1cc(C)c(S(=O)(=O)Nc2cccc(S(=O)(=O)N3CCOCC3)c2)c(C)c1`, the AC40 was 2.71 µM.

Regarding `Cc1ccc(-c2ccc3c(c2)O[C@H](CN(C)Cc2ccc(F)cc2)[C@@H](C)CN([C@H](C)CO)S3(=O)=O)cc1`, the AC40 is 5.46 µM.

For the compound `CCC(=O)NC(=S)Nc1ccc(S(=O)(=O)NC2CCCCC2)cc1`, the AC40 was 1.1 µM.

With `COc1ccc(NS(=O)(=O)c2cc(NC(=O)c3ccc(=O)[nH]n3)ccc2C)cc1`, the AC40 was 5.01 µM.
